From PubChem BioAssay AID2060886 (Molecular Pharmacology Branch, DTP, NCI, 2025)
Each block holds one compound with its values, some of them ahead of it.

Tested on: 653999-131-R-J2-PDC complex spheroids, growth inhibition
Assay: Anticancer human tumor 653999-131-R-J2-PDC patient-derived lung adenocarcinoma cell line growth inhibition [RAS]
Details: for viability, T/C: stronger effect = lower value
Method in brief: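 Multi-cell-type spheroids: tumor cells plus HUVEC endothelial cells and mesenchymal stem cells. RAS-pathway inhibitors were combined with targeted agents, each dosed in half-log steps down from clinical Cmax, or from 10 microM when Cmax was unknown.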

[1] = curve of first compound, second compound 0.000949 µM
[2] = curve of first compound, second compound 0.003 µM
[3] = curve of first compound, second compound 0.00949 µM
[4] = curve of first compound, second compound 0.03 µM
[5] = curve of first compound, second compound 0.0949 µM
[6] = curve of first compound, second compound 0.3 µM
[7] = second compound 0.000949 µM, first compound 0.0316 µM
[8] = second compound 0.000949 µM, first compound 0.1 µM
[9] = second compound 0.000949 µM, first compound 0.316 µM
[10] = second compound 0.000949 µM, first compound 1 µM
[11] = second compound 0.000949 µM, first compound 3.16 µM
[12] = second compound 0.000949 µM, first compound 10 µM
[13] = second compound 0.003 µM, first compound 0.0316 µM
[14] = second compound 0.003 µM, first compound 0.1 µM
[15] = second compound 0.003 µM, first compound 0.316 µM
[16] = second compound 0.003 µM, first compound 1 µM
[17] = second compound 0.003 µM, first compound 3.16 µM
[18] = second compound 0.003 µM, first compound 10 µM
[19] = second compound 0.00949 µM, first compound 0.0316 µM
[20] = second compound 0.00949 µM, first compound 0.1 µM
[21] = second compound 0.00949 µM, first compound 0.316 µM
[22] = second compound 0.00949 µM, first compound 1 µM
[23] = second compound 0.00949 µM, first compound 3.16 µM
[24] = second compound 0.00949 µM, first compound 10 µM
[25] = second compound 0.03 µM, first compound 0.0316 µM
[26] = second compound 0.03 µM, first compound 0.1 µM
[27] = second compound 0.03 µM, first compound 0.316 µM
[28] = second compound 0.03 µM, first compound 1 µM
[29] = second compound 0.03 µM, first compound 3.16 µM
[30] = second compound 0.03 µM, first compound 10 µM
[31] = second compound 0.0949 µM, first compound 0.0316 µM
[32] = second compound 0.0949 µM, first compound 0.1 µM
[33] = second compound 0.0949 µM, first compound 0.316 µM
[34] = second compound 0.0949 µM, first compound 1 µM
[35] = second compound 0.0949 µM, first compound 3.16 µM
[36] = second compound 0.0949 µM, first compound 10 µM
[37] = second compound 0.3 µM, first compound 0.0316 µM
[38] = second compound 0.3 µM, first compound 0.1 µM
[39] = second compound 0.3 µM, first compound 0.316 µM
[40] = second compound 0.3 µM, first compound 1 µM
[41] = second compound 0.3 µM, first compound 3.16 µM
[42] = second compound 0.3 µM, first compound 10 µM
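Note: spheroids exposed to the agents for seven days before the readout.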

- IC50 (curve of first compound, second compound 0.0316 µM): 4780 nM
- IC50 (curve of first compound, second compound 0.1 µM): 3960 nM
- IC50 (curve of first compound, second compound 0.316 µM): < 31.6 nM
- IC50 (curve of first compound, second compound 1 µM): < 31.6 nM
- IC50 (curve of first compound, second compound 3.16 µM): < 31.6 nM
- IC50 (curve of first compound, second compound 10 µM): < 31.6 nM
SMILES: CC1(O)CCCC1n1c(=O)c(C(F)F)cc2cnc(NC3CCN(S(C)(=O)=O)CC3)nc21 (stereo unspecified) + C#Cc1c(F)ccc2cc(O)cc(-c3ncc4c(N5CC6CCC(C5)N6)nc(OCC56CCCN5CC(F)C6)nc4c3F)c12
- viability, T/C (second compound 0.0316 µM, first compound 0.0316 µM): 71.3%
- viability, T/C (second compound 0.0316 µM, first compound 0.1 µM): 54.8%
- viability, T/C (second compound 0.0316 µM, first compound 0.316 µM): 62.4%
- viability, T/C (second compound 0.0316 µM, first compound 1 µM): 57.2%
- viability, T/C (second compound 0.0316 µM, first compound 3.16 µM): 63.1%
- viability, T/C (second compound 0.0316 µM, first compound 10 µM): 29.6%
- viability, T/C (second compound 0.1 µM, first compound 0.0316 µM): 69.4%
- viability, T/C (second compound 0.1 µM, first compound 0.1 µM): 49.9%
- viability, T/C (second compound 0.1 µM, first compound 0.316 µM): 51.2%
- viability, T/C (second compound 0.1 µM, first compound 1 µM): 52.1%
- viability, T/C (second compound 0.1 µM, first compound 3.16 µM): 58.4%
- viability, T/C (second compound 0.1 µM, first compound 10 µM): 24.7%
- viability, T/C (second compound 0.316 µM, first compound 0.0316 µM): 49.4%
- viability, T/C (second compound 0.316 µM, first compound 0.1 µM): 42.7%
- viability, T/C (second compound 0.316 µM, first compound 0.316 µM): 42.6%
- viability, T/C (second compound 0.316 µM, first compound 1 µM): 45.5%
- viability, T/C (second compound 0.316 µM, first compound 3.16 µM): 49.2%
- viability, T/C (second compound 0.316 µM, first compound 10 µM): 27.7%
- viability, T/C (second compound 1 µM, first compound 0.0316 µM): 40.5%
- viability, T/C (second compound 1 µM, first compound 0.1 µM): 31.4%
- viability, T/C (second compound 1 µM, first compound 0.316 µM): 32.7%
- viability, T/C (second compound 1 µM, first compound 1 µM): 34.3%
- viability, T/C (second compound 1 µM, first compound 3.16 µM): 34.4%
- viability, T/C (second compound 1 µM, first compound 10 µM): 24.5%
- viability, T/C (second compound 3.16 µM, first compound 0.0316 µM): 29.6%
- viability, T/C (second compound 3.16 µM, first compound 0.1 µM): 25.5%
- viability, T/C (second compound 3.16 µM, first compound 0.316 µM): 21.6%
- viability, T/C (second compound 3.16 µM, first compound 1 µM): 23%
- viability, T/C (second compound 3.16 µM, first compound 3.16 µM): 31.4%
- viability, T/C (second compound 3.16 µM, first compound 10 µM): 20.7%
- viability, T/C (second compound 10 µM, first compound 0.0316 µM): 23.2%
- viability, T/C (second compound 10 µM, first compound 0.1 µM): 17.1%
- viability, T/C (second compound 10 µM, first compound 0.316 µM): 20.6%
- viability, T/C (second compound 10 µM, first compound 1 µM): 19.7%
- viability, T/C (second compound 10 µM, first compound 3.16 µM): 25.6%
- viability, T/C (second compound 10 µM, first compound 10 µM): 22.7%

- IC50 [1]: > 10000 nM
- IC50 [2]: > 10000 nM
- IC50 [3]: > 10000 nM
- IC50 [4]: > 10000 nM
- IC50 [5]: > 10000 nM
- IC50 [6]: < 31.6 nM
SMILES: CC(=O)OC12COC1CC(O)C1(C)C(=O)C(O)C3=C(C)C(OC(=O)C(O)C(NC(=O)OC(C)(C)C)c4ccccc4)CC(O)(C(OC(=O)c4ccccc4)C21)C3(C)C (stereo unspecified) + CCn1c(-c2cccnc2C(C)OC)c2c3cc(ccc31)N1CCOC(CC(NC(=O)C(C(C)C)N(C)C(=O)C3(F)CCN(C(=O)C#CC(C)(C)N(C)C)CC3)C(=O)N3CCCC(N3)C(=O)OCC(C)(C)C2)C1
- viability, T/C [7]: 52.5%
- viability, T/C [8]: 52.7%
- viability, T/C [9]: 57.8%
- viability, T/C [10]: 62.2%
- viability, T/C [11]: 62.3%
- viability, T/C [12]: 66.6%
- viability, T/C [13]: 59.5%
- viability, T/C [14]: 53.2%
- viability, T/C [15]: 53.8%
- viability, T/C [16]: 59.7%
- viability, T/C [17]: 70.7%
- viability, T/C [18]: 76.9%
- viability, T/C [19]: 60.5%
- viability, T/C [20]: 59.7%
- viability, T/C [21]: 53.1%
- viability, T/C [22]: 58.7%
- viability, T/C [23]: 66.3%
- viability, T/C [24]: 67.2%
- viability, T/C [25]: 57.6%
- viability, T/C [26]: 59.9%
- viability, T/C [27]: 56.1%
- viability, T/C [28]: 54.5%
- viability, T/C [29]: 68%
- viability, T/C [30]: 64.2%
- viability, T/C [31]: 53.6%
- viability, T/C [32]: 55%
- viability, T/C [33]: 52.3%
- viability, T/C [34]: 58.5%
- viability, T/C [35]: 61%
- viability, T/C [36]: 65.1%
- viability, T/C [37]: 45.6%
- viability, T/C [38]: 49.8%
- viability, T/C [39]: 41%
- viability, T/C [40]: 52.1%
- viability, T/C [41]: 53.7%
- viability, T/C [42]: 60.3%

- IC50 (curve of compound): 727 nM [middle of 4 runs]
SMILES: CC(Nc1ccc2c(c1)OCCn1cc(N3C(=O)OCC3C(F)F)nc1-2)C(N)=O (stereo unspecified)
- viability, T/C (compound 0.0316 µM): 79.8% [middle of 4 runs]
- viability, T/C (compound 0.1 µM): 77.8% [middle of 4 runs]
- viability, T/C (compound 0.316 µM): 57.4% [middle of 4 runs]
- viability, T/C (compound 1 µM): 45.6% [middle of 4 runs]
- viability, T/C (compound 3.16 µM): 36.4% [middle of 4 runs]
- viability, T/C (compound 10 µM): 25.5% [middle of 4 runs]

- IC50 [1]: 160 nM
- IC50 [2]: 152 nM
- IC50 [3]: < 31.6 nM
- IC50 [4]: < 31.6 nM
- IC50 [5]: < 31.6 nM
- IC50 [6]: < 31.6 nM
SMILES: CC(Nc1ccc2c(c1)OCCn1cc(N3C(=O)OCC3C(F)F)nc1-2)C(N)=O (stereo unspecified) + CCn1c(-c2cc(N3CCN(C)CC3)cnc2C(C)OC)c2c3cc(ccc31)-c1csc(n1)CC(NC(=O)C1CC1C)C(=O)N1CCCC(N1)C(=O)OCC(C)(C)C2
- viability, T/C [7]: 72.8%
- viability, T/C [8]: 57.9%
- viability, T/C [9]: 37.4%
- viability, T/C [10]: 33.5%
- viability, T/C [11]: 24.9%
- viability, T/C [12]: 18.5%
- viability, T/C [13]: 60%
- viability, T/C [14]: 56.5%
- viability, T/C [15]: 38.9%
- viability, T/C [16]: 35.6%
- viability, T/C [17]: 17.2%
- viability, T/C [18]: 13.2%
- viability, T/C [19]: 37.8%
- viability, T/C [20]: 32.8%
- viability, T/C [21]: 29.7%
- viability, T/C [22]: 19.1%
- viability, T/C [23]: 16.3%
- viability, T/C [24]: 10.7%
- viability, T/C [25]: 34.5%
- viability, T/C [26]: 27.7%
- viability, T/C [27]: 21.2%
- viability, T/C [28]: 12%
- viability, T/C [29]: 11.2%
- viability, T/C [30]: 6.45%
- viability, T/C [31]: 27.4%
- viability, T/C [32]: 19.4%
- viability, T/C [33]: 12%
- viability, T/C [34]: 13%
- viability, T/C [35]: 8.97%
- viability, T/C [36]: 5.82%
- viability, T/C [37]: 20.6%
- viability, T/C [38]: 14.2%
- viability, T/C [39]: 12.9%
- viability, T/C [40]: 8.03%
- viability, T/C [41]: 7.08%
- viability, T/C [42]: 4.92%

- IC50 (compound alone, run of 08/26/2024): 8.13 nM [middle of 7 runs]
SMILES: CCn1c(-c2cc(N3CCN(C)CC3)cnc2C(C)OC)c2c3cc(ccc31)-c1csc(n1)CC(NC(=O)C1CC1C)C(=O)N1CCCC(N1)C(=O)OCC(C)(C)C2 (stereo unspecified)
- viability, T/C (compound 0.000949 µM): 80.7% [middle of 7 runs]
- viability, T/C (compound 0.003 µM): 65.2% [middle of 7 runs]
- viability, T/C (compound 0.00949 µM): 49.8% [middle of 7 runs]
- viability, T/C (compound 0.03 µM): 37.4% [middle of 7 runs]
- viability, T/C (compound 0.0949 µM): 29.4% [middle of 7 runs]
- viability, T/C (compound 0.3 µM): 28.6% [middle of 7 runs]

SMILES: CC(C)NCC(C(=O)N1CCN(c2ncnc3c2C(C)CC3O)CC1)c1ccc(Cl)cc1 (stereo unspecified)
- viability, T/C (compound 0.0316 µM): 96.7% [middle of 4 runs]
- viability, T/C (compound 0.1 µM): 96.7% [middle of 4 runs]
- viability, T/C (compound 0.316 µM): 77.1% [middle of 4 runs]
- viability, T/C (compound 1 µM): 54.2% [middle of 4 runs]
- viability, T/C (compound 3.16 µM): 46.6% [middle of 4 runs]
- viability, T/C (compound 10 µM): 34.9% [middle of 4 runs]
